{
  "source": "patent US6809084B1",
  "about": "“Compositions containing polysaccharides from phellinus linteus and methods for treating diabetes mellitus using same” (Korea Research Institute of Bioscience and Biotechnology, priority 2000, dated 2004)",
  "system": "ICR mouse",
  "assay": "Streptozotocin-induced diabetes in ICR mice",
  "type": "in vivo",
  "conditions": "60 mg/kg three times i.p., normal ICR mouse 200 mg/dl",
  "description": "FIG. 7 illustrates the effect of PL on experimental group with streptozotocin-induced diabetes. Blood glucose values were measured with Accutrend sensor system (Boehringer Mannheim, Germany).\nStreptozotocin, which can induce Insulin-dependent diabetes mellitus, destroys selectively pancreatic beta cells, and diabetes mellitus induced :by streptozotocin is similar with diabetes naturally occurring in NOD mice. […] ICR mouse received 60 mg/kg of streptozotocin three times with intraperitoneal injection. Streptozotocin was used in solution of citrate buffer (pH 4.2, 4° C.). The blood glucose level of ICR mouse treated with streptozotocin was 450 mg/dl, whereas that of normal ICR mouse without streptozotocin was 200 mg/dl (FIG. 7).",
  "data": [
    {"smiles": "CN(N=O)C(=O)N[C@H]1C(O)O[C@H](CO)[C@@H](O)[C@@H]1O", "note": "(mixture of isomers) [streptozotocin]", "values": [
      {"measurement": "blood glucose level", "result": 450, "unit": "mg/dL"}
    ]}
  ]
}
